Measurements taken from patent US11051515B2, “3-acyl-benzamides and their use as herbicides” (Bayer Aktiengesellschaft, priority 2017, dated 2021).

How the values were obtained:
ALOMY [1] = assay: Pre-emergence action against ALOMY; type: in vivo, Alopecurus myosuroides; conditions: dosage 320 g/ha, pre-emergence, scored visually after 3 weeks vs untreated controls, 100% = plants have died, 0% = like control plants
In short: (§1)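 Seeds sown in sandy loam in wood-fiber pots and covered with soil. Greenhouse growth; visual damage scored after 3 weeks versus untreated controls (100% = dead, 0% = like control).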

AVEFA [2] = assay: Pre-emergence action against AVEFA; type: in vivo, Avena fatua; conditions: dosage 320 g/ha, scored visually after 3 weeks vs untreated controls
In short: as §1

ECHCG [3] = assay: Pre-emergence action against ECHCG; type: in vivo, Echinochloa crus-galli; conditions: pre-emergence, dosage 320 g/ha, scored visually after 3 weeks vs untreated controls
In short: as §1

LOLRI = assay: Pre-emergence action against LOLRI; type: in vivo, Lolium rigidum; conditions: dosage 320 g/ha, scored visually after 3 weeks vs untreated controls
In short: as §1

SETVI [4] = assay: Pre-emergence action against SETVI; type: in vivo, Setaria viridis; conditions: pre-emergence, dosage 320 g/ha, scored visually after 3 weeks vs untreated controls
In short: as §1

ABUTH [5] = assay: Pre-emergence action against ABUTH; type: in vivo, Abutilon theophrasti; conditions: pre-emergence, dosage 320 g/ha, scored visually after 3 weeks vs untreated controls
In short: as §1

AMARE [6] = assay: Pre-emergence action against AMARE; type: in vivo, Amaranthus retroflexus; conditions: pre-emergence, dosage 320 g/ha, scored visually after 3 weeks vs untreated controls
In short: as §1

MATIN [7] = assay: Pre-emergence action against MATIN; type: in vivo, Matricaria inodora; conditions: Dosage 320 g/ha, pre-emergence
In short: as §1

PHBPU [8] = assay: Pre-emergence action against PHBPU; type: in vivo, Pharbitis purpurea; conditions: Dosage 320 g/ha, pre-emergence
In short: as §1

POLCO [9] = assay: Pre-emergence action against POLCO; type: in vivo, Polygonum convolvulus; conditions: Dosage 320 g/ha, pre-emergence
In short: as §1

STEME [10] = assay: Pre-emergence action against STEME; type: in vivo, Stellaria media; conditions: Dosage 320 g/ha, pre-emergence
In short: as §1

VIOTR [11] = assay: Pre-emergence action against VIOTR; type: in vivo, Viola tricolor; conditions: Dosage 320 g/ha, pre-emergence
In short: as §1

VERPE [12] = assay: Pre-emergence action against VERPE; type: in vivo, Veronica persica; conditions: Dosage 320 g/ha, pre-emergence
In short: as §1

HORMU = assay: Pre-emergence action against HORMU; type: in vivo, Hordeum murinum; conditions: Dosage 320 g/ha
From the text: (§2) Seeds of monocotyledonous and dicotyledonous weed plants and crop plants are laid out in sandy loam soil in wood-fiber pots and covered with soil. The compounds of the invention, formulated in the form of wettable powders (WP) or as emulsion concentrates (EC), are then applied to the surface of the covering soil in the form of an aqueous suspension or emulsion at a water application rate equating to […], with addition of 0.2% wetting agent. After the treatment, the pots are placed in a greenhouse and kept under good growth conditions for the trial plants. The damage to the test plants is scored visually after a test period of 3 weeks by comparison with untreated controls (herbicidal activity in percent (%): 100% activity=the plants have died, 0% activity=like control plants).

ALOMY [13] = assay: Post-emergence action against ALOMY; type: in vivo, Alopecurus myosuroides; conditions: Alopecurus myosuroides, 504 h; Dosage 80 g/ha, post-emergence
In short: (§3)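 Weeds grown in sandy loam in greenhouse, treated at one-leaf stage (2–3 weeks after sowing) with WP or EC formulations sprayed as aqueous suspension/emulsion at 600 to […] water with 0.2% wetting agent. Visual rating after about 3 weeks versus untreated controls, as % herbicidal action (100% = plants dead, 0% = like control).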

CYPES = assay: Post-emergence action against CYPES; type: in vivo, Cyperus esculentus; conditions: post-emergence, dosage 80 g/ha, visual assessment about 3 weeks after treatment vs untreated controls
In short: as §3

ECHCG [14] = assay: Post-emergence action against ECHCG; type: in vivo, Echinochloa crus-galli; conditions: post-emergence, dosage 80 g/ha, visual assessment about 3 weeks after treatment vs untreated controls
In short: as §3

SETVI [15] = assay: Post-emergence action against SETVI; type: in vivo, Setaria viridis; conditions: post-emergence, dosage 80 g/ha, visual assessment about 3 weeks after treatment vs untreated controls
In short: as §3

ABUTH [16] = assay: Post-emergence action against ABUTH; type: in vivo, Abutilon theophrasti; conditions: post-emergence, dosage 80 g/ha, visual assessment about 3 weeks after treatment vs untreated controls
In short: as §3

AMARE [17] = assay: Post-emergence action against AMARE; type: in vivo, Amaranthus retroflexus; conditions: post-emergence, dosage 80 g/ha, visual assessment about 3 weeks after treatment vs untreated controls
In short: as §3

MATIN [18] = assay: Post-emergence action against MATIN; type: in vivo, Matricaria inodora; conditions: post-emergence, dosage 80 g/ha, visual assessment about 3 weeks after treatment vs untreated controls
In short: as §3

PHBPU [19] = assay: Post-emergence action against PHBPU; type: in vivo, Pharbitis purpurea; conditions: post-emergence, dosage 80 g/ha
In short: as §3

POLCO [20] = assay: Post-emergence action against POLCO; type: in vivo, Polygonum convolvulus; conditions: Fallopia convolvulus, 504 h; post-emergence, dosage 80 g/ha
In short: as §3

STEME [21] = assay: Post-emergence action against STEME; type: in vivo, Stellaria media; conditions: post-emergence, dosage 80 g/ha
In short: as §3

VIOTR [22] = assay: Post-emergence action against VIOTR; type: in vivo, Viola tricolor; conditions: post-emergence, dosage 80 g/ha
In short: as §3

VERPE [23] = assay: Post-emergence action against VERPE; type: in vivo, Veronica persica; conditions: Veronica persica, 504 h, dosage 80 g/ha
In short: as §3

DIGSA = assay: Pre-emergence action against DIGSA; type: in vivo, Digitaria sanguinalis; conditions: dosage 320 g/ha, scored visually after 3 weeks vs untreated controls
From the text: as §2

AVEFA [24] = assay: Post-emergence action against AVEFA; type: in vivo, Avena fatua; conditions: post-emergence, dosage 80 g/ha, visual assessment about 3 weeks after treatment vs untreated controls
In short: as §3

CSc1c(C(=O)Nc2nnnn2C)ccc(C(F)F)c1C(C)=O [1-65]
90%: pest or weed control at 320 g/ha (HORMU; Hordeum murinum, 504 h) | pest or weed control at 80 g/ha (CYPES; Cyperus esculentus, 504 h, read-out: Post-emergence action against CYPES (herbicidal action in percent))
80%: pest or weed control at 320 g/ha (LOLRI; Lolium rigidum, 504 h, read-out: Pre-emergence action against LOLRI (herbicidal activity)) | pest or weed control at 80 g/ha (ALOMY [13])
100%: pest or weed control at 320 g/ha (ALOMY [1]; Alopecurus myosuroides, 504 h, read-out: Pre-emergence action against ALOMY (herbicidal activity in percent)) | pest or weed control at 320 g/ha (AVEFA [2]; Avena fatua, 504 h, read-out: Pre-emergence action against AVEFA (herbicidal activity)) | pest or weed control at 320 g/ha (ECHCG [3]; Echinochloa crus-galli, 504 h, read-out: Pre-emergence action against ECHCG (herbicidal activity)) | pest or weed control at 320 g/ha (SETVI [4]; Setaria viridis, 504 h, read-out: SETVI (Table B8, pre-emergence herbicidal activity)) | pest or weed control at 320 g/ha (ABUTH [5]; Abutilon theophrasti, 504 h, read-out: Pre-emergence action against ABUTH (herbicidal activity)) | pest or weed control at 320 g/ha (AMARE [6]; Amaranthus retroflexus, 504 h, read-out: Pre-emergence action against AMARE (herbicidal activity)) | pest or weed control at 320 g/ha (MATIN [7]; Tripleurospermum inodorum, 504 h) | pest or weed control at 320 g/ha (PHBPU [8]; Ipomoea purpurea, 504 h) | pest or weed control at 320 g/ha (POLCO [9]; Fallopia convolvulus, 504 h) | pest or weed control at 320 g/ha (STEME [10]; Stellaria media, 504 h) | pest or weed control at 320 g/ha (VIOTR [11]; Viola tricolor, 504 h) | pest or weed control at 320 g/ha (VERPE [12]; Veronica persica, 504 h) | pest or weed control at 80 g/ha (ECHCG [14]; Echinochloa crus-galli, 504 h, read-out: Post-emergence action against ECHCG (herbicidal action in percent)) | pest or weed control at 80 g/ha (SETVI [15]; Setaria viridis, 504 h, read-out: Post-emergence action against SETVI (herbicidal action in percent)) | pest or weed control at 80 g/ha (ABUTH [16]; Abutilon theophrasti, 504 h, read-out: Post-emergence action against ABUTH (herbicidal action in percent)) | pest or weed control at 80 g/ha (AMARE [17]; Amaranthus retroflexus, 504 h, read-out: Post-emergence action against AMARE (herbicidal action in percent)) | pest or weed control at 80 g/ha (MATIN [18]; Tripleurospermum inodorum, 504 h, read-out: Post-emergence action against MATIN (herbicidal action in percent)) | pest or weed control at 80 g/ha (PHBPU [19]; Ipomoea purpurea, 504 h) | pest or weed control at 80 g/ha (POLCO [20]) | pest or weed control at 80 g/ha (STEME [21]; Stellaria media, 504 h) | pest or weed control at 80 g/ha (VIOTR [22]; Viola tricolor, 504 h) | pest or weed control at 80 g/ha (VERPE [23])

Cn1nnnc1NC(=O)c1ccc(C(F)(F)F)c(C(=O)C2CCCCC2)c1Cl [1-155]
90%: Pre-emergence action against DIGSA (herbicidal activity) (DIGSA) | Pre-emergence action against MATIN (MATIN [7]) | Pre-emergence action against STEME (STEME [10]) | Post-emergence action against ABUTH (herbicidal action in percent) (ABUTH [16]) | Post-emergence action against AMARE (herbicidal action in percent) (AMARE [17])
80%: Pre-emergence action against AMARE (herbicidal activity) (AMARE [6]) | Post-emergence action against MATIN (herbicidal action in percent) (MATIN [18])
100%: Pre-emergence action against ABUTH (herbicidal activity) (ABUTH [5]) | Pre-emergence action against VIOTR (VIOTR [11])
80: Post-emergence action against PHBPU (PHBPU [19]) | Post-emergence action against STEME (STEME [21])

CCn1nnnc1NC(=O)c1ccc(C(F)(F)F)c(C(=O)C2CCCCC2)c1Cl [2-155]
100%: Pre-emergence action against ABUTH (herbicidal activity) (ABUTH [5]) | Pre-emergence action against AMARE (herbicidal activity) (AMARE [6]) | Pre-emergence action against MATIN (MATIN [7]) | Pre-emergence action against STEME (STEME [10]) | Pre-emergence action against VIOTR (VIOTR [11])
80%: Pre-emergence action against ECHCG (herbicidal activity) (ECHCG [3]) | Pre-emergence action against VERPE (VERPE [12]) | Post-emergence action against AMARE (herbicidal action in percent) (AMARE [17])
90%: Pre-emergence action against DIGSA (herbicidal activity) (DIGSA)

CCCn1nnnc1NC(=O)c1ccc(C(F)F)c(C(=O)C2CC2)c1Cl [3-168]
90%: Pre-emergence action against HORMU (HORMU) | Post-emergence action against AVEFA (herbicidal action in percent) (AVEFA [24]) | Post-emergence action against CYPES (herbicidal action in percent) (CYPES)
100%: Pre-emergence action against ALOMY (herbicidal activity in percent) (ALOMY [1]) | Pre-emergence action against AVEFA (herbicidal activity) (AVEFA [2]) | Pre-emergence action against ECHCG (herbicidal activity) (ECHCG [3]) | Pre-emergence action against LOLRI (herbicidal activity) (LOLRI) | SETVI (Table B8, pre-emergence herbicidal activity) (SETVI [4]) | Pre-emergence action against ABUTH (herbicidal activity) (ABUTH [5]) | Pre-emergence action against AMARE (herbicidal activity) (AMARE [6]) | Pre-emergence action against MATIN (MATIN [7]) | Pre-emergence action against PHBPU (PHBPU [8]) | Pre-emergence action against STEME (STEME [10]) | Pre-emergence action against VIOTR (VIOTR [11]) | Pre-emergence action against VERPE (VERPE [12]) | Post-emergence action against ECHCG (herbicidal action in percent) (ECHCG [14]) | Post-emergence action against SETVI (herbicidal action in percent) (SETVI [15]) | Post-emergence action against ABUTH (herbicidal action in percent) (ABUTH [16]) | Post-emergence action against AMARE (herbicidal action in percent) (AMARE [17]) | Post-emergence action against MATIN (herbicidal action in percent) (MATIN [18])
80%: Pre-emergence action against POLCO (POLCO [9])
100: Post-emergence action against PHBPU (PHBPU [19]) | Post-emergence action against STEME (STEME [21]) | Post-emergence action against VIOTR (VIOTR [22])

CCCn1nnnc1NC(=O)c1ccc(C(F)(F)F)c(C(=O)C2CCCCC2)c1SC [3-281]
100%: Pre-emergence action against ABUTH (herbicidal activity) (ABUTH [5]) | Pre-emergence action against VIOTR (VIOTR [11])
80%: Pre-emergence action against DIGSA (herbicidal activity) (DIGSA) | Pre-emergence action against AMARE (herbicidal activity) (AMARE [6]) | Post-emergence action against AMARE (herbicidal action in percent) (AMARE [17])
90%: Pre-emergence action against STEME (STEME [10])
